# Test results: US7855166B2, “Sulfonylamino(thio)carbonyl compounds” (Bayer Cropscience GmbH, priority 2005, dated 2010)
# Experiments:
# [1] = test system: weed plants such as Sinapis alba, Chrysanthemum segetum, Avena sativa, Stellaria media, Echinochloa crus-galli, Lolium multiflorum, Setaria viridis, Abutilon …; test: Pre-emergence effect on weeds (greenhouse pot test, visual scoring); type: in vivo; settings: applied pre-emergence at a rate of 0.3 kg or less of active substance per hectare; scored after 3 to 4 weeks in comparison to untreated controls
# [2] = test system: weed plants such as Sinapis alba, Echinochloa crus-galli, Lolium multiflorum, Chrysanthemum segetum, Setaria viridis, Abutilon theophrasti, Amaranthus …; test: Post-emergence effect on weeds (greenhouse pot test, visual scoring); type: in vivo; settings: applied post-emergence (three-leaf stage) at a rate of 0.3 kg or less of active substance per hectare; scored after about 3 to 4 weeks in comparison to untreated controls
SMILES,herbicidal action against weed plants (visual scoring of plant damage or emergence damage) [1],herbicidal action against weed plants (effect scored visually) [2]
COc1nn(C(=O)NS(=O)(=O)c2c(I)cccc2OS(C)(=O)=O)c(=O)n1C1CC1 [Compound 1.716],very good herbidical action,very good herbicidal action
CCOc1nn(C(=O)NS(=O)(=O)c2c(I)cccc2OC(F)F)c(=O)n1C [Compound 1.463],very good herbidical action,very good herbicidal action
CCOc1cccc(I)c1S(=O)(=O)NC(=O)n1nc(OCC)n(C)c1=O [Compound 1.214],very good herbidical action,very good herbicidal action
COc1nn(C(=O)NS(=O)(=O)c2ccc(C)c(F)c2I)c(=O)n1C1CC1 [Compound 1.859],very good herbidical action,very good herbicidal action
CCCOc1nn(C(=O)NS(=O)(=O)c2c(Cl)cc(C(F)(F)F)cc2I)c(=O)n1C [Compound 1.844],very good herbidical action,very good herbicidal action
O=C(NS(=O)(=O)c1ccc(C(F)(F)F)cc1I)n1nc(C2CC2)n(C2CC2)c1=O [Compound 1.892],very good herbidical action,very good herbicidal action
CCCOc1nn(C(=O)NS(=O)(=O)c2c(I)cccc2OS(=O)(=O)N(C)C)c(=O)n1C1CC1 [Compound 1.756],very good herbidical action,very good herbicidal action
CCSc1nn(C(=O)NS(=O)(=O)c2c(I)cccc2OC)c(=O)n1C [Compound 1.197],very good herbidical action,very good herbicidal action
CSc1cccc(I)c1S(=O)(=O)NC(=O)n1nc(OC(C)C)n(C)c1=O [Compound 1.582],very good herbidical action,very good herbicidal action
CCOc1nn(C(=O)NS(=O)(=O)c2c(I)cccc2OC(F)F)c(=O)n1C1CC1 [Compound 1.470],very good herbidical action,very good herbicidal action
COc1nn(C(=O)NS(=O)(=O)c2ccccc2I)c(=O)n1C1CC1 [Compound 1.008],very good herbidical action,very good herbicidal action
CCC(C)Oc1cccc(I)c1S(=O)(=O)NC(=O)n1nc(OC)n(C2CC2)c1=O (stereo not shown) [Compound 1.286],very good herbidical action,very good herbicidal action
CC(C)Oc1nn(C(=O)NS(=O)(=O)c2c(I)cccc2OC(C)C(F)(F)F)c(=O)n1C (stereo not shown) [Compound 1.527],very good herbidical action,very good herbicidal action
COc1nn(C(=O)NS(=O)(=O)c2c(I)cccc2C(F)(F)F)c(=O)n1C1CC1 [Compound 1.140],very good herbidical action,very good herbicidal action
COc1nn(C(=O)NS(=O)(=O)c2c(I)cccc2OCC(F)F)c(=O)n1C [Compound 1.501],very good herbidical action,very good herbicidal action
CCOc1cccc(I)c1S(=O)(=O)NC(=O)n1nc(OC)n(C2CC2)c1=O [Compound 1.218],very good herbidical action,very good herbicidal action
COc1nn(C(=O)NS(=O)(=O)c2c(Cl)ccc(Cl)c2I)c(=O)n1C1CC1 [Compound 1.853],very good herbidical action,very good herbicidal action
CCCc1ccc(S(=O)(=O)NC(=O)n2nc(OC(C)C)n(C)c2=O)c(I)c1 [Compound 1.879],very good herbidical action,very good herbicidal action
COc1nn(C(=O)NS(=O)(=O)c2c(C)cccc2I)c(=O)n1C1CC1 [Compound 1.042],very good herbidical action,very good herbicidal action

SMILES,herbicidal action against weed plants (visual scoring of plant damage or emergence damage) [1],herbicidal action against weed plants (effect scored visually) [2]
CCCOc1nn(C(=O)NS(=O)(=O)c2c(I)cccc2OCC2CC2)c(=O)n1C1CC1 [Compound 1.359],very good herbidical action,very good herbicidal action
COc1nn(C(=O)NS(=O)(=O)c2cc(C(F)(F)F)ccc2I)c(=O)n1C1CC1 [Compound 1.839],very good herbidical action,very good herbicidal action
CCCCc1ccc(S(=O)(=O)NC(=O)n2nc(OCCC)n(C3CC3)c2=O)c(I)c1 [Compound 1.888],very good herbidical action,very good herbicidal action
CCCOc1nn(C(=O)NS(=O)(=O)c2c(I)cccc2OC(C)C)c(=O)n1C [Compound 1.255],very good herbidical action,very good herbicidal action
CCCOc1nn(C(=O)NS(=O)(=O)c2c(I)cccc2SC)c(=O)n1C1CC1 [Compound 1.586],very good herbidical action,very good herbicidal action
COc1nn(C(=O)NS(=O)(=O)c2ccc(C(F)(F)F)cc2I)c(=O)n1C1CC1 [Compound 1.896],very good herbidical action,very good herbicidal action
CCOc1nn(C(=O)NS(=O)(=O)c2c(C)cccc2I)c(=O)n1C [Compound 1.038],very good herbidical action,very good herbicidal action
CCCCc1ccc(S(=O)(=O)NC(=O)n2nc(OC(C)C)n(C)c2=O)c(I)c1 [Compound 1.889],very good herbidical action,very good herbicidal action
COc1nn(C(=O)NS(=O)(=O)c2ccc(Cl)cc2I)c(=O)n1C1CC1 [Compound 1.873],very good herbidical action,very good herbicidal action
CCCOc1nn(C(=O)NS(=O)(=O)c2c(I)cccc2OC(C)C(F)(F)F)c(=O)n1C1CC1 (stereo not shown) [Compound 1.535],very good herbidical action,very good herbicidal action
CCCOc1nn(C(=O)NS(=O)(=O)c2c(I)cccc2C(F)(F)F)c(=O)n1C [Compound 1.137],very good herbidical action,very good herbicidal action
COc1nn(C(=O)NS(=O)(=O)c2c(I)cccc2OC(F)F)c(=O)n1C [Compound 1.460],very good herbidical action,very good herbicidal action
COc1nn(C(=O)NS(=O)(=O)c2c(I)cccc2OC(F)(F)F)c(=O)n1C [Compound 1.440],very good herbidical action,very good herbicidal action
CCOc1nn(C(=O)NS(=O)(=O)c2cc(C)c(C)cc2I)c(=O)n1C [Compound 1.863],very good herbidical action,very good herbicidal action
CCCOc1nn(C(=O)NS(=O)(=O)c2c(I)cccc2OCC(F)(F)C(F)(F)F)c(=O)n1C1CC1 [Compound 1.558],very good herbidical action,very good herbicidal action
CCCOc1nn(C(=O)NS(=O)(=O)c2c(I)cccc2OC)c(=O)n1C [Compound 1.195],very good herbidical action,very good herbicidal action
CCCc1ccc(S(=O)(=O)NC(=O)n2nc(OCC)n(C)c2=O)c(I)c1 [Compound 1.877],very good herbidical action,very good herbicidal action
CCOc1nn(C(=O)NS(=O)(=O)c2c(I)cccc2OCC(F)F)c(=O)n1C [Compound 1.504],very good herbidical action,very good herbicidal action
CCOc1nn(C(=O)NS(=O)(=O)c2c(I)cccc2OC(C)C(F)(F)F)c(=O)n1C (stereo not shown) [Compound 1.525],very good herbidical action,very good herbicidal action
